{
  "source": "patent US20240199598A1",
  "about": "(MITOIMMUNE THERAPEUTICS INC., priority 2021, published 2024)",
  "key": {"[1]": {"experiment": "pKa, UV-metric method", "assay_type": "physicochemical", "excerpt": "As shown in the following Table 2, each combination of counter ions and solvents were given a batch number."}, "[2]": {"experiment": "Solubility of compound of Chemical Formula 1 in various solvents", "assay_type": "physicochemical", "excerpt": "Very low solubility in various solvents adversely affects pharmaceutical development that requires the production of a finished product in a completely dissolved state."}, "[3]": {"experiment": "Physicochemical stability test of free form and 5 salts (60° C., 40° C./75% humidity, light)", "details": "for Final purity: HPLC", "description": "In the case of a light stability test, the vial was stored in a light stability test chamber while being not closed with a lid, and exposed to a total illuminance of 1.2 million lux-hr. A vial light-shielded with aluminum foil was used as an experimental control (Dark control). For stability assessment, state assessment by visual observation, purity assessment using HPLC, and crystalline form assessment using XRPD were conducted, and results thereof are shown in Table 7. […] In FIGS. 19 to 30, “Light” represents light irradiation condition results."}, "[4]": {"experiment": "Oral administration pharmacokinetic test using mice"}, "[5]": {"details": "1.2 million lux-hr, listed as Free form of compound 1"}, "[6]": {"details": "40° C./75% RH, 1 w, listed as Free form of compound 1"}, "[7]": {"details": "60° C., 1 w, listed as Free form of compound 1"}, "[8]": {"details": "Dark control, listed as Free form of compound 1"}},
  "note": "Where two headings read alike, the source gives them in different places.",
  "data": [
    {"compound": "O=S1(=O)CCN(Cc2cc(NC3CCOCC3)c3[nH]c(-c4ccccc4)cc3c2)CC1", "note": "[compound of Chemical Formula 1, 5-[(1,1-dioxido-4-thiomorpholinyl)methyl]-2-phenyl-N-(tetrahydro-2H-pyran-4-yl)-1H-indol-7-amine]", "values": [
      {"measurement": "pKa", "setting": "[1]", "value": 4.5},
      {"measurement": "solubility", "setting": "[2]; Heptane, 25° C.", "value": "<LOQ"},
      {"measurement": "solubility", "setting": "[2]; Heptane, 50° C.", "value": "<LOQ"},
      {"measurement": "solubility", "setting": "[2]; Water, 25° C., read-out: Solubility", "value": 1, "unit": "µg/mL"},
      {"measurement": "solubility", "setting": "[2]; Water, 50° C., read-out: Solubility", "value": 46, "unit": "µg/mL"},
      {"measurement": "solubility", "setting": "[2]; aqueous with cosolvent or surfactant or cyclodextrin, Acetic acid-water (1:1), 25° C., read-out: Solubility", "value": 52800, "unit": "µg/mL"},
      {"measurement": "solubility", "setting": "[2]; aqueous with cosolvent or surfactant or cyclodextrin, Acetic acid-water (1:1), 50° C., read-out: Solubility", "value": 75600, "unit": "µg/mL"},
      {"measurement": "solubility", "setting": "[2]; aqueous with cosolvent or surfactant or cyclodextrin, Acetone-water (1:2), 25° C., read-out: Solubility", "value": 80, "unit": "µg/mL"},
      {"measurement": "solubility", "setting": "[2]; aqueous with cosolvent or surfactant or cyclodextrin, Acetone-water (1:2), 50° C., read-out: Solubility", "value": 160, "unit": "µg/mL"},
      {"measurement": "solubility", "setting": "[2]; aqueous with cosolvent or surfactant or cyclodextrin, MeOH/water = 1:1 (v/v), 25° C., read-out: Solubility", "value": 30, "unit": "µg/mL"},
      {"measurement": "solubility", "setting": "[2]; aqueous with cosolvent or surfactant or cyclodextrin, MeOH/water = 1:1 (v/v), 50° C., read-out: Solubility", "value": 80, "unit": "µg/mL"},
      {"measurement": "solubility", "setting": "[2]; organic solvent or mixture, 1-Butanol, 25° C., read-out: Solubility", "value": 650, "unit": "µg/mL"},
      {"measurement": "solubility", "setting": "[2]; organic solvent or mixture, 1-Butanol, 50° C., read-out: Solubility", "value": 1000, "unit": "µg/mL"},
      {"measurement": "solubility", "setting": "[2]; organic solvent or mixture, 2-Methyltetrahydrofuran (2-MeTHF), 25° C., read-out: Solubility", "value": 2780, "unit": "µg/mL"},
      {"measurement": "solubility", "setting": "[2]; organic solvent or mixture, 2-Methyltetrahydrofuran (2-MeTHF), 50° C., read-out: Solubility", "value": 3410, "unit": "µg/mL"},
      {"measurement": "solubility", "setting": "[2]; organic solvent or mixture, Acetone, 25° C., read-out: Solubility", "value": 5290, "unit": "µg/mL"},
      {"measurement": "solubility", "setting": "[2]; organic solvent or mixture, Acetone, 50° C., read-out: Solubility", "value": 17500, "unit": "µg/mL"},
      {"measurement": "solubility", "setting": "[2]; organic solvent or mixture, Acetonitrile (ACN), 25° C., read-out: Solubility", "value": 3090, "unit": "µg/mL"},
      {"measurement": "solubility", "setting": "[2]; organic solvent or mixture, Acetonitrile (ACN), 50° C., read-out: Solubility", "value": 4040, "unit": "µg/mL"},
      {"measurement": "solubility", "setting": "[2]; organic solvent or mixture, Chloroform (CHCl3), 25° C., read-out: Solubility", "value": 4700, "unit": "µg/mL"},
      {"measurement": "solubility", "setting": "[2]; organic solvent or mixture, Chloroform (CHCl3), 50° C., read-out: Solubility", "value": 4620, "unit": "µg/mL"},
      {"measurement": "solubility", "setting": "[2]; organic solvent or mixture, Dimethyl sulfoxide (DMSO), 25° C., read-out: Solubility", "value": 43400, "unit": "µg/mL"},
      {"measurement": "solubility", "setting": "[2]; organic solvent or mixture, Dimethyl sulfoxide (DMSO), 50° C., read-out: Solubility", "value": 238000, "unit": "µg/mL"},
      {"measurement": "solubility", "setting": "[2]; organic solvent or mixture, Ethanol (EtOH), 25° C., read-out: Solubility", "value": 1410, "unit": "µg/mL"},
      {"measurement": "solubility", "setting": "[2]; organic solvent or mixture, Ethanol (EtOH), 50° C., read-out: Solubility", "value": 1080, "unit": "µg/mL"},
      {"measurement": "solubility", "setting": "[2]; organic solvent or mixture, Ethyl acetate (EtOAc), 25° C., read-out: Solubility", "value": 1360, "unit": "µg/mL"},
      {"measurement": "solubility", "setting": "[2]; organic solvent or mixture, Ethyl acetate (EtOAc), 50° C., read-out: Solubility", "value": 1860, "unit": "µg/mL"},
      {"measurement": "solubility", "setting": "[2]; organic solvent or mixture, Isopropanol (IPA), 25° C., read-out: Solubility", "value": 320, "unit": "µg/mL"},
      {"measurement": "solubility", "setting": "[2]; organic solvent or mixture, Isopropanol (IPA), 50° C., read-out: Solubility", "value": 540, "unit": "µg/mL"},
      {"measurement": "solubility", "setting": "[2]; organic solvent or mixture, Isopropyl acetate (iPrOAc), 25° C., read-out: Solubility", "value": 710, "unit": "µg/mL"},
      {"measurement": "solubility", "setting": "[2]; organic solvent or mixture, Isopropyl acetate (iPrOAc), 50° C., read-out: Solubility", "value": 910, "unit": "µg/mL"},
      {"measurement": "solubility", "setting": "[2]; organic solvent or mixture, Methanol (MeOH), 25° C., read-out: Solubility", "value": 590, "unit": "µg/mL"},
      {"measurement": "solubility", "setting": "[2]; organic solvent or mixture, Methanol (MeOH), 50° C., read-out: Solubility", "value": 1150, "unit": "µg/mL"},
      {"measurement": "solubility", "setting": "[2]; organic solvent or mixture, Methyl ethyl ketone (MEK), 25° C., read-out: Solubility", "value": 6080, "unit": "µg/mL"},
      {"measurement": "solubility", "setting": "[2]; organic solvent or mixture, Methyl ethyl ketone (MEK), 50° C., read-out: Solubility", "value": 8120, "unit": "µg/mL"},
      {"measurement": "solubility", "setting": "[2]; organic solvent or mixture, Methyl isobutyl ketone (MIBK), 25° C., read-out: Solubility", "value": 2100, "unit": "µg/mL"},
      {"measurement": "solubility", "setting": "[2]; organic solvent or mixture, Methyl isobutyl ketone (MIBK), 50° C., read-out: Solubility", "value": 2820, "unit": "µg/mL"},
      {"measurement": "solubility", "setting": "[2]; organic solvent or mixture, Methyl tert-butyl ether (MTBE), 25° C., read-out: Solubility", "value": 60, "unit": "µg/mL"},
      {"measurement": "solubility", "setting": "[2]; organic solvent or mixture, Methyl tert-butyl ether (MTBE), 50° C., read-out: Solubility", "value": 70, "unit": "µg/mL"},
      {"measurement": "solubility", "setting": "[2]; organic solvent or mixture, N,N-dimethylformamide (DMF), 50° C., read-out: Solubility", "value": 333000, "unit": "µg/mL"},
      {"measurement": "solubility", "setting": "[2]; organic solvent or mixture, N-methyl pyrrolidone (NMP), 25° C., read-out: Solubility", "value": 160000, "unit": "µg/mL"},
      {"measurement": "solubility", "setting": "[2]; organic solvent or mixture, N-methyl pyrrolidone (NMP), 50° C., read-out: Solubility", "value": 192000, "unit": "µg/mL"},
      {"measurement": "solubility", "setting": "[2]; organic solvent or mixture, Tetrahydrofuran (THF), 25° C., read-out: Solubility", "value": 17400, "unit": "µg/mL"},
      {"measurement": "solubility", "setting": "[2]; organic solvent or mixture, Tetrahydrofuran (THF), 50° C., read-out: Solubility", "value": 16300, "unit": "µg/mL"},
      {"measurement": "solubility", "setting": "[2]; organic solvent or mixture, Toluene, 25° C., read-out: Solubility", "value": 20, "unit": "µg/mL"},
      {"measurement": "solubility", "setting": "[2]; organic solvent or mixture, Toluene, 50° C., read-out: Solubility", "value": 20, "unit": "µg/mL"},
      {"measurement": "Appearance", "setting": "[3]; 1.2 million lux-hr (light stability), listed as Free form of compound 1", "value": "White powder"},
      {"measurement": "Final purity", "setting": "[3]; [5]", "value": 99.89, "unit": "%"},
      {"measurement": "Assay", "setting": "[3]; [5]", "value": 107.41, "unit": "%"},
      {"measurement": "Purity change", "setting": "[3]; [5]", "value": "+0.13%"},
      {"measurement": "XRPD patterns", "setting": "[3]; [5]", "value": "Pattern A"},
      {"measurement": "Final purity", "setting": "[3]; [6]", "value": 99.95, "unit": "%"},
      {"measurement": "Assay", "setting": "[3]; [6]", "value": 110.59, "unit": "%"},
      {"measurement": "Purity change", "setting": "[3]; [6]", "value": "+0.19%"},
      {"measurement": "XRPD patterns", "setting": "[3]; [6]", "value": "Pattern A"},
      {"measurement": "Chemical stability (purity change %/1 w), 40° C./75% RH", "setting": "[3]; 40° C./75% RH, 1 w, summary Table 9, listed as Free form of compound of Chemical Formula 1", "value": 0.19, "unit": "%"},
      {"measurement": "Final purity", "setting": "[3]; [7]", "value": 99.94, "unit": "%"},
      {"measurement": "Assay", "setting": "[3]; [7]", "value": 105.89, "unit": "%"},
      {"measurement": "Purity change", "setting": "[3]; [7]", "value": "+0.18%"},
      {"measurement": "XRPD patterns", "setting": "[3]; [7]", "value": "Pattern A"},
      {"measurement": "Chemical stability (purity change %/1 w), 60° C.", "setting": "[3]; 60° C., 1 w, summary Table 9, listed as Free form of compound of Chemical Formula 1", "value": 0.18, "unit": "%"},
      {"measurement": "Appearance", "setting": "[3]; Dark control (light-shielded vial)", "value": "White powder"},
      {"measurement": "Final purity", "setting": "[3]; [8]", "value": 99.94, "unit": "%"},
      {"measurement": "Assay", "setting": "[3]; [8]", "value": 109.40, "unit": "%"},
      {"measurement": "Purity change", "setting": "[3]; [8]", "value": "+0.18%"},
      {"measurement": "XRPD patterns", "setting": "[3]; [8]", "value": "Pattern A"},
      {"measurement": "Chemical stability (purity change %/1 w), Light stability", "setting": "[3]; light stability, summary Table 9, listed as Free form of compound of Chemical Formula 1", "value": 0.13, "unit": "%"},
      {"measurement": "Cmax", "setting": "[4]; mice, oral, 10 mg/kg, listed as Free", "value": 1015.2, "unit": "ng/mL"},
      {"measurement": "t½", "setting": "[4]; mice, oral, 10 mg/kg, listed as free form", "value": 72, "unit": "min"},
      {"measurement": "AUClast", "setting": "[4]; mice, oral, 10 mg/kg, listed as free form of the compound of Chemical Formula 1, 10 mg/kg", "value": 3603.9, "unit": "ng·h/mL"},
      {"measurement": "Pharmacokinetic test, t½", "setting": "[4]; mice, oral, summary Table 9, listed as Free form of compound of Chemical Formula 1", "value": 60, "unit": "min"},
      {"measurement": "Tmax", "setting": "[4]; mouse, in vivo, po, 10 mg/kg", "value": 30, "unit": "min"}
    ]}
  ]
}
